Measured values as given in patent US11530198B2, “Compositions and methods for treating infections” (priority 2016, dated 2022).
Read-outs that look alike come from different tables or passages of the source.

Columns and labels:
T. gondii DHFR (tgDHFR) = T. gondii DHFR (tgDHFR) (Toxoplasma gondii, UniProt Q07422); conditions: for Average DHFR selectivity (h/tg): hDHFR IC50/tgDHFR IC50
hDHFR = hDHFR (Homo sapiens (Human), UniProt P00374); experiment: DHFR inhibition assay (diaphorase/resazurin coupled, fluorescence of resorufin), human DHFR; assay type: biochemical
Sequence of hDHFR (P00374 whole entry): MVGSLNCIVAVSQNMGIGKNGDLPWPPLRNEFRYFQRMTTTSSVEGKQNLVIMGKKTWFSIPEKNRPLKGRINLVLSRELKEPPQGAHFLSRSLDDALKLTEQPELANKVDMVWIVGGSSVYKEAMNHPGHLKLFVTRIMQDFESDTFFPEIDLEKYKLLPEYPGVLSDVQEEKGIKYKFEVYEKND

T. cruzi DHFR (tcDHFR) = T. cruzi DHFR (tcDHFR) (Trypanosoma cruzi, UniProt Q27793); experiment: DHFR inhibition assay (diaphorase/resazurin coupled), T. cruzi DHFR; assay type: biochemical; conditions: for tcDHFR pIC50-DHFR primary assay: Table 12, T. cruzi DHFR; for Average DHFR selectivity (h/tc): hDHFR IC50/tcDHFR IC50
T. brucei DHFR (tbDHFR) = T. brucei DHFR (tbDHFR) (Trypanosoma brucei brucei, UniProt Q27783); experiment: DHFR inhibition assay (diaphorase/resazurin coupled), T. brucei DHFR; assay type: biochemical; conditions: for tbDHFR pIC50-DHFR primary assay: Table 13, T. brucei DHFR; for Average DHFR selectivity (h/tb)*-DHFR IC50: hDHFR IC50/tbDHFR IC50
L. major DHFR (1mDHFR) = L. major DHFR (1mDHFR) (Leishmania major, UniProt P07382); assay type: biochemical; conditions: for Average DHFR selectivity (h/lm)*-DHFR IC50: hDHFR IC50/L. major DHFR IC50
[1] = target: P. falciparum DHFR (pfDHFR) (Plasmodium falciparum (isolate K1 / Thailand), UniProt P13922); experiment: DHFR inhibition assay (diaphorase/resazurin coupled), P. falciparum DHFR; assay type: biochemical; conditions: for pfDHFR pIC50-DHFR primary assay: Table 15, P. falciparum DHFR

Nc1ncc(N2CCN(c3cccc(C(F)(F)F)c3)CC2)c(N)n1 [Compound 3, 5-(4-(3-(trifluoromethyl)phenyl)piperazin-1-yl)pyrimidine-2,4-diamine]
tgDHFR pIC50-DHFR primary assay (T. gondii DHFR (tgDHFR)): 7.21
hDHFR pIC50-DHFR primary assay (hDHFR; Table 11): 6.27

Nc1ncc(N2CCN(c3ccccc3)CC2)c(N)n1 [Compound 4, 5-(4-phenylpiperazin-1-yl)pyrimidine-2,4-diamine]
tgDHFR pIC50-DHFR primary assay (T. gondii DHFR (tgDHFR)): 6.68
hDHFR pIC50-DHFR primary assay (hDHFR; Table 11): 4.90
hDHFR pIC50-DHFR primary assay (hDHFR; Table 12): 4.90
hDHFR pIC50-DHFR primary assay (hDHFR; Table 13): 4.90
hDHFR pIC50-DHFR primary assay (hDHFR; Table 14): 4.90
hDHFR pIC50-DHFR primary assay (hDHFR; Table 15): 4.90
tcDHFR pIC50-DHFR primary assay (T. cruzi DHFR (tcDHFR)): 7.04
tbDHFR pIC50-DHFR primary assay (T. brucei DHFR (tbDHFR)): 7.50
mDHFR pIC50-DHFR primary assay (L. major DHFR (1mDHFR); Table 14, L. major DHFR): 6.30
pfDHFR pIC50-DHFR primary assay [1]: 8.72

Nc1ncc(N2CCN(c3ccc(Cl)cc3)CC2)c(N)n1 [Compound 6, 5-(4-(4-chlorophenyl)piperazin-1-yl)pyrimidine-2,4-diamine]
tgDHFR pIC50-DHFR primary assay (T. gondii DHFR (tgDHFR)): 7.34
hDHFR pIC50-DHFR primary assay (hDHFR; Table 11): 5.96

Cc1cccc(N2CCN(c3cnc(N)nc3N)CC2)c1 [Compound 7, 5-(4-(m-tolyl)piperazin-1-yl)pyrimidine-2,4-diamine]
tgDHFR pIC50-DHFR primary assay (T. gondii DHFR (tgDHFR)): 7.12
hDHFR pIC50-DHFR primary assay (hDHFR; Table 11): 5.22

Nc1ncc(N2CCN(c3ccc(-c4ccccc4)cc3)CC2)c(N)n1 [Compound 12, 5-(4-([1,1′-biphenyl]-4-yl)piperazin-1-yl)pyrimidine-2,4-diamine]
Average DHFR selectivity (h/lm)*-DHFR IC50 (L. major DHFR (1mDHFR)): 29

Nc1ncc(N2CCN(c3cnc4ccccc4c3)CC2)c(N)n1 [Compound 19, 5-(4-(quinolin-3-yl)piperazin-1-yl)pyrimidine-2,4-diamine]
Average DHFR selectivity (h/lm)*-DHFR IC50 (L. major DHFR (1mDHFR)): 35

CCCc1nc(N)nc(N)c1N1CCN(c2ccccc2)CC1 [Compound 49, 5-(4-phenylpiperazin-1-yl)-6-propylpyrimidine-2,4-diamine]
Average DHFR selectivity (h/tg) (T. gondii DHFR (tgDHFR)): 501.19
pfDHFR pIC50-DHFR primary assay [1]: 7.85
Average DHFR selectivity (h/pf)*-DHFR IC50 ([1]; hDHFR IC50/pfDHFR IC50): 806

CCCc1nc(N)nc(N)c1N1CCN(c2ncc(C)cn2)CC1 [Compound 59, 5-(4-(5-methylpyrimidin-2-yl)piperazin-1-yl)-6-propylpyrimidine-2,4-diamine]
Average DHFR selectivity (h/tg) (T. gondii DHFR (tgDHFR)): 118.81

CCCc1nc(N)nc(N)c1N1CCN(c2ccc(OC)cn2)CC1 [Compound 60, 5-(4-(5-methoxypyridin-2-yl)piperazin-1-yl)-6-propylpyrimidine-2,4-diamine]
Average DHFR selectivity (h/tg) (T. gondii DHFR (tgDHFR)): 149.75

Nc1ncc(N2CCN(c3cccc(-c4cccc(F)c4)c3)CC2)c(N)n1 [Compound 64, 5-(4-(3′-fluoro-[1,1′-biphenyl]-3-yl)piperazin-1-yl)pyrimidine-2,4-diamine]
Average DHFR selectivity (h/tg) (T. gondii DHFR (tgDHFR)): 93.86

Nc1ncc(N2CCN(c3cccc(C4CC4)c3)CC2)c(N)n1 [Compound 66, 5-(4-(3-cyclopropylphenyl)piperazin-1-yl)pyrimidine-2,4-diamine]
tgDHFR pIC50-DHFR primary assay (T. gondii DHFR (tgDHFR)): 7.54
hDHFR pIC50-DHFR primary assay (hDHFR; Table 11): 5.79

N#Cc1cccc(-c2cccc(N3CCN(c4cnc(N)nc4N)CC3)c2)c1 [Compound 67, 3′-(4-(2,4-diaminopyrimidin-5-yl)piperazin-1-yl)-[1,1′-biphenyl]-3-carbonitrile]
Average DHFR selectivity (h/tg) (T. gondii DHFR (tgDHFR)): 77.18

Nc1ncc(N2CCN(c3cccc(-c4ccnnc4)c3)CC2)c(N)n1 [Compound 73, 5-(4-(3-(pyridazin-4-yl)phenyl)piperazin-1-yl)pyrimidine-2,4-diamine]
tgDHFR pIC50-DHFR primary assay (T. gondii DHFR (tgDHFR)): 8.22
hDHFR pIC50-DHFR primary assay (hDHFR; Table 11): 5.96

Nc1ncc(N2CCN(c3cccc(-c4cncnc4)c3)CC2)c(N)n1 [Compound 74, 5-(4-(3-(pyrimidin-5-yl)phenyl)piperazin-1-yl)pyrimidine-2,4-diamine]
tgDHFR pIC50-DHFR primary assay (T. gondii DHFR (tgDHFR)): 8.32
hDHFR pIC50-DHFR primary assay (hDHFR; Table 11): 5.84

COc1ncc(-c2cccc(N3CCN(c4cnc(N)nc4N)CC3)c2)cn1 [Compound 78, 5-(4-(3-(2-methoxypyrimidin-5-yl)phenyl)piperazin-1-yl)pyrimidine-2,4-diamine]
tgDHFR pIC50-DHFR primary assay (T. gondii DHFR (tgDHFR); Table 11, T. gondii DHFR): 8.49
hDHFR pIC50-DHFR primary assay (hDHFR; Table 11): 5.92
hDHFR pIC50-DHFR primary assay (hDHFR; Table 13): 6.05
hDHFR pIC50-DHFR primary assay (hDHFR; Table 15): 6.04
tbDHFR pIC50-DHFR primary assay (T. brucei DHFR (tbDHFR)): 8.68
pfDHFR pIC50-DHFR primary assay [1]: 9.15

COc1ncccc1-c1cccc(N2CCN(c3cnc(N)nc3N)CC2)c1 [Compound 80, 5-(4-(3-(2-methoxypyridin-3-yl)phenyl)piperazin-1-yl)pyrimidine-2,4-diamine]
Average DHFR selectivity (h/tg) (T. gondii DHFR (tgDHFR)): 165.32

Nc1ncc(N2CCN(c3cccc(-c4cnc(C5CC5)nc4)c3)CC2)c(N)n1 [Compound 86, 5-(4-(3-(2-cyclopropylpyrimidin-5-yl)phenyl)piperazin-1-yl)pyrimidine-2,4-diamine]
Average DHFR selectivity (h/tb)*-DHFR IC50 (T. brucei DHFR (tbDHFR)): 330

Nc1ncc(N2CCN(c3cccc(-c4ccnc(F)c4)c3)CC2)c(N)n1 [Compound 90, 5-(4-(3-(2-fluoropyridin-4-yl)phenyl)piperazin-1-yl)pyrimidine-2,4-diamine]
Average DHFR selectivity (h/lm)*-DHFR IC50 (L. major DHFR (1mDHFR)): 27

Cc1ncc(-c2cccc(C3CCN(c4cnc(N)nc4N)CC3)c2)cn1 [Compound 94, 5-(4-(3-(2-methylpyrimidin-5-yl)phenyl)piperidin-1-yl)pyrimidine-2,4-diamine]
hDHFR pIC50-DHFR primary assay (hDHFR; Table 13): 6.49
tbDHFR pIC50-DHFR primary assay (T. brucei DHFR (tbDHFR)): 9.05
Average DHFR selectivity (h/tb)*-DHFR IC50 (T. brucei DHFR (tbDHFR)): 357

CCc1ncc(-c2cccc(N3CCN(c4cnc(N)nc4N)CC3)c2)cn1 [Compound 95, 5-(4-(3-(2-ethylpyrimidin-5-yl)phenyl)piperazin-1-yl)pyrimidine-2,4-diamine]
Average DHFR selectivity (h/tg) (T. gondii DHFR (tgDHFR)): 218.78
Average DHFR selectivity (h/tb)*-DHFR IC50 (T. brucei DHFR (tbDHFR)): 375

CN(C)c1ncc(-c2cccc(N3CCN(c4cnc(N)nc4N)CC3)c2)cn1 [Compound 96, 5-(4-(3-(2-(dimethylamino)pyrimidin-5-yl)phenyl)piperazin-1-yl)pyrimidine-2,4-diamine]
Average DHFR selectivity (h/tg) (T. gondii DHFR (tgDHFR)): 115.48

CNc1ncc(-c2cccc(N3CCN(c4cnc(N)nc4N)CC3)c2)cn1 [Compound 97, 5-(4-(3-(2-(methylamino)pyrimidin-5-yl)phenyl)piperazin-1-yl)pyrimidine-2,4-diamine]
Average DHFR selectivity (h/tg) (T. gondii DHFR (tgDHFR)): 131.33

Nc1ncc(N2CCN(c3cccc(-c4cnc(N5CCC5)nc4)c3)CC2)c(N)n1 [Compound 98, 5-(4-(3-(2-(azetidin-1-yl)pyrimidin-5-yl)phenyl)piperazin-1-yl)pyrimidine-2,4-diamine]
Average DHFR selectivity (h/tg) (T. gondii DHFR (tgDHFR)): 130.84
Average DHFR selectivity (h/lm)*-DHFR IC50 (L. major DHFR (1mDHFR)): 48

Nc1ncc(N2CCN(c3cccc(-c4cnc(Cl)nc4)c3)CC2)c(N)n1 [Compound 100, 5-(4-(3-(2-chloropyrimidin-5-yl)phenyl)piperazin-1-yl)pyrimidine-2,4-diamine]
Average DHFR selectivity (h/tg) (T. gondii DHFR (tgDHFR)): 197.28
Average DHFR selectivity (h/tb)*-DHFR IC50 (T. brucei DHFR (tbDHFR)): 522

Nc1ncc(N2CCN(c3cccc(-c4ccncn4)c3)CC2)c(N)n1 [Compound 102, 5-(4-(3-(pyrimidin-4-yl)phenyl)piperazin-1-yl)pyrimidine-2,4-diamine]
Average DHFR selectivity (h/tc) (T. cruzi DHFR (tcDHFR)): 103

Nc1ncc(N2CCN(c3cccc(-c4ncccn4)c3)CC2)c(N)n1 [Compound 103, 5-(4-(3-(pyrimidin-2-yl)phenyl)piperazin-1-yl)pyrimidine-2,4-diamine]
tgDHFR pIC50-DHFR primary assay (T. gondii DHFR (tgDHFR)): 7.56
hDHFR pIC50-DHFR primary assay (hDHFR; Table 11): 5.89

Nc1ncc(N2CCN(c3cccc(-c4cnccn4)c3)CC2)c(N)n1 [Compound 104, 5-(4-(3-(pyrazin-2-yl)phenyl)piperazin-1-yl)pyrimidine-2,4-diamine]
tgDHFR pIC50-DHFR primary assay (T. gondii DHFR (tgDHFR)): 7.99
hDHFR pIC50-DHFR primary assay (hDHFR; Table 11): 5.88

Nc1nc(N)c(N2CCN(c3ccccc3)CC2)c(CC2CC2)n1 [Compound 106]
Average DHFR selectivity (h/tg) (T. gondii DHFR (tgDHFR)): 218.96

Nc1ncc(N2CCN(c3cccc(-c4cccnn4)c3)CC2)c(N)n1 [Compound 107]
Average DHFR selectivity (h/lm)*-DHFR IC50 (L. major DHFR (1mDHFR)): 30

COc1ccc(N2CCN(c3cnc(N)nc3N)CC2)cc1 [Compound 114, 5-(4-(4-methoxyphenyl)piperazin-1-yl)pyrimidine-2,4-diamine]
Average DHFR selectivity (h/tc) (T. cruzi DHFR (tcDHFR)): 144

Nc1ncc(N2CCN(c3ccc(C(F)(F)F)cc3)CC2)c(N)n1 [Compound 115, 5-(4-(4-(trifluoromethyl)phenyl)piperazin-1-yl)pyrimidine-2,4-diamine]
Average DHFR selectivity (h/tc) (T. cruzi DHFR (tcDHFR)): 132

Nc1ncc(N2CCN(c3ccc(F)cc3)CC2)c(N)n1 [Compound 116, 5-(4-(4-fluorophenyl)piperazin-1-yl)pyrimidine-2,4-diamine]
Average DHFR selectivity (h/tc) (T. cruzi DHFR (tcDHFR)): 100

CN(Cc1cnc2nc(N)nc(N)c2n1)c1ccc(C(=O)N[C@@H](CCC(=O)O)C(=O)O)cc1 [Methotrexate]
tcDHFR pIC50-DHFR primary assay (T. cruzi DHFR (tcDHFR)): 8.96
